# Results from ChEMBL document CHEMBL1140031, “Cyclic voltammetric analysis of 2-styrylchromones: relationship with the antioxidant activity” (Bioorg Med Chem, 2008).
# Experiments:
# Format in all cases: functional
# [1] = Antioxidant activity assessed as singlet oxygen scavenging activity
# [2] = Antioxidant activity assessed as hypochlorous acid scavenging activity
# [3] = Antioxidant activity assessed as superoxide radical scavenging activity
# [4] = Antioxidant activity assessed as peroxynitrite radical scavenging activity in absence of NaHCO3
# [5] = Antioxidant activity assessed as peroxynitrite radical scavenging activity in presence of NaHCO3
# [6] = Antioxidant activity assessed as H2O2 scavenging activity at 125 uM
SMILES,IC50 [2] [µM],IC50 [4] [nM],IC50 [5] [nM],IC30 [1] [µM],IC27 [3] [µM],Activity [6] [%]
O=c1cc(/C=C/c2ccccc2)oc2cc(O)cc(O)c12,5.7,46600,40600,81.3,125,
O=c1cc(/C=C/c2ccc(O)cc2)oc2ccccc12,,1200,1230,105,56,
O=c1cc(/C=C/c2ccccc2)oc2cc(O)ccc12,72.3,,,,55.9,
O=c1cc(/C=C/c2ccc(O)cc2)oc2cc(O)ccc12,92,1400,1650,93.4,17.7,
O=c1cc(/C=C/c2ccc(O)cc2)oc2cc(O)cc(O)c12,8.5,1250,1210,72.3,,10.6

# More lines, in order of falling IC50 [4], values ahead:
IC50 [2] [µM],IC50 [4] [nM],IC50 [5] [nM],SMILES,IC30 [1] [µM],IC27 [3] [µM],Activity [6] [%]
,1040,980,O=c1cc(/C=C/c2ccc(O)cc2)oc2cccc(O)c12,40,,16.9
18,300,610,O=c1cc(/C=C/c2ccc(O)c(O)c2)oc2cc(O)ccc12,3.7,18.9,50.8
3.9,260,630,O=c1cc(/C=C/c2ccc(O)c(O)c2)oc2cc(O)cc(O)c12,2.3,28.8,66.7
16.9,260,510,O=c1cc(/C=C/c2ccc(O)c(O)c2)oc2cccc(O)c12,1.9,46.6,50.8
31.2,240,440,O=c1cc(/C=C/c2ccc(O)c(O)c2)oc2ccccc12,2.7,42.4,44.1
